# Laboratory results as given in patent publication US10829796B2, “Bacteria identification and antimicrobial susceptibility test” (priority 2015, dated 2020).
# Experiments:
# Type in all cases: cell-based
# Escherichia coli = test: Antibiotic susceptibility testing (colour of media), spiked milk; conditions: 37° C., plate configuration #3
# Procedure: (§1) Tables 36 to 38 which follow show further examples of antibiotic susceptibility testing performed in accordance with the present invention. Table 36, antibiotic susceptibility testing of Staphylococcus aureus in Mueller Hinton and Tryptic Soy Broth at pre-incubation and at between 15-24 h. Tables 37 and 38, antimicrobial susceptibility testing of Streptococcus uberis and E. coli with the addition of gram negative specific antibiotic aztreonam. Tables 38 to 49 show further examples of antibiotic susceptibility testing and the outcomes are aligned with the described inventions.
# Staphylococcus aureus = test: as above; conditions: for Colour of media: bacteria sample 5c; for Colour of media in each well: T~16 h, 37° C., plate configuration #3
# Procedure: as §1
# Streptococcus uberis = test: as above; conditions: T~16 h, 37° C., bacteria samples 6d, plate configuration #3
# Procedure: as §1
# [1] = tested on: bacteria samples 4c, 4e, 5c, 5e, 6d; test: Antibiotic susceptibility testing (colour of media), plate configuration #3, reference colours at 0 hours for bacteria samples 4c, 4e, 5c, 5e, 6d; conditions: T~0 h
# [2] = Benzyl Penicillin or Cloxacillin 1 μg/ml
# [3] = Benzyl Penicillin or Cloxacillin 10 μg/ml
# [4] = Benzyl Penicillin or Cloxacillin 100 μg/ml
# [5] = Benzyl Penicillin or Cloxacillin 1,000 μg/ml
# [6] = Benzyl Penicillin or Cloxacillin 10,000 μg/ml
compound,measurement,setting,value
CC1(C)S[C@@H]2[C@H](NC(=O)Cc3ccccc3)C(=O)N2[C@H]1C(=O)O [benzyl penicillin],Colour of media in each well,"Escherichia coli; T~16 h, bacteria samples 4c, Benzyl Penicillin or Cloxacillin 1 μg/ml",yellow
same,Colour of media in each well,"Escherichia coli; T~16 h, bacteria samples 4c, Benzyl Penicillin or Cloxacillin 10 μg/ml",yellow
same,Colour of media in each well,"Escherichia coli; T~16 h, bacteria samples 4c, Benzyl Penicillin or Cloxacillin 100 μg/ml",red
same,Colour of media in each well,"Escherichia coli; T~16 h, bacteria samples 4c, Benzyl Penicillin or Cloxacillin 1,000 μg/ml",red
same,Colour of media in each well,"Escherichia coli; T~16 h, bacteria samples 4c, Benzyl Penicillin or Cloxacillin 10,000 μg/ml",red
same,Colour of media in each well,"Escherichia coli; t~16 h, bacteria samples 4e, Benzyl Penicillin or Cloxacillin 1 μg/ml",yellow
same,Colour of media in each well,"Escherichia coli; t~16 h, bacteria samples 4e, Benzyl Penicillin or Cloxacillin 10 μg/ml",yellow
same,Colour of media in each well,"Escherichia coli; t~16 h, bacteria samples 4e, Benzyl Penicillin or Cloxacillin 100 μg/ml",Red
same,Colour of media in each well,"Escherichia coli; t~16 h, bacteria samples 4e, Benzyl Penicillin or Cloxacillin 1,000 μg/ml",Red
same,Colour of media in each well,"Escherichia coli; t~16 h, bacteria samples 4e, Benzyl Penicillin or Cloxacillin 10,000 μg/ml",Red
same,Colour of media,"Staphylococcus aureus; T = 0 hours (pre incubation), drug 0.01 μg/ml, Mueller Hinton (70 ul composition 26)",red
same,Colour of media,"Staphylococcus aureus; T = 0 hours (pre incubation), drug 0.01 μg/ml, Tryptic Soy (70 ul composition 2c)",red
same,Colour of media,"Staphylococcus aureus; T = 0 hours (pre incubation), drug 0.01 μg/ml, Tryptic Soy, wells H (20 ul composition 2c)",red
same,Colour of media,"Staphylococcus aureus; T = 0 hours (pre incubation), drug 0.05 μg/ml, Mueller Hinton (70 ul composition 26)",red
same,Colour of media,"Staphylococcus aureus; T = 0 hours (pre incubation), drug 0.05 μg/ml, Tryptic Soy (70 ul composition 2c)",red
same,Colour of media,"Staphylococcus aureus; T = 0 hours (pre incubation), drug 0.05 μg/ml, Tryptic Soy, wells H (20 ul composition 2c)",red
same,Colour of media,"Staphylococcus aureus; T = 0 hours (pre incubation), drug 0.1 μg/ml, Mueller Hinton (70 ul composition 26)",red
same,Colour of media,"Staphylococcus aureus; T = 0 hours (pre incubation), drug 0.1 μg/ml, Tryptic Soy (70 ul composition 2c)",red
same,Colour of media,"Staphylococcus aureus; T = 0 hours (pre incubation), drug 0.1 μg/ml, Tryptic Soy, wells H (20 ul composition 2c)",red
same,Colour of media,"Staphylococcus aureus; T = 0 hours (pre incubation), drug 0.5 μg/ml, Mueller Hinton (70 ul composition 26)",red
same,Colour of media,"Staphylococcus aureus; T = 0 hours (pre incubation), drug 0.5 μg/ml, Tryptic Soy (70 ul composition 2c)",red
same,Colour of media,"Staphylococcus aureus; T = 0 hours (pre incubation), drug 0.5 μg/ml, Tryptic Soy, wells H (20 ul composition 2c)",red
same,Colour of media,"Staphylococcus aureus; T = 0 hours (pre incubation), drug 1 μg/ml, Mueller Hinton (70 ul composition 26)",red
same,Colour of media,"Staphylococcus aureus; T = 0 hours (pre incubation), drug 1 μg/ml, Tryptic Soy (70 ul composition 2c)",red
same,Colour of media,"Staphylococcus aureus; T = 0 hours (pre incubation), drug 1 μg/ml, Tryptic Soy, wells H (20 ul composition 2c)",red
same,Colour of media,"Staphylococcus aureus; T = 0 hours (pre incubation), drug 5 μg/ml, Mueller Hinton (70 ul composition 26)",red
same,Colour of media,"Staphylococcus aureus; T = 0 hours (pre incubation), drug 5 μg/ml, Tryptic Soy (70 ul composition 2c)",red
same,Colour of media,"Staphylococcus aureus; T = 0 hours (pre incubation), drug 5 μg/ml, Tryptic Soy, wells H (20 ul composition 2c)",red
same,Colour of media,"Staphylococcus aureus; T = 0 hours (pre incubation), drug 10 μg/ml, Mueller Hinton (70 ul composition 26)",red
same,Colour of media,"Staphylococcus aureus; T = 0 hours (pre incubation), drug 10 μg/ml, Tryptic Soy (70 ul composition 2c)",red
same,Colour of media,"Staphylococcus aureus; T = 0 hours (pre incubation), drug 10 μg/ml, Tryptic Soy, wells H (20 ul composition 2c)",red
same,Colour of media,"Staphylococcus aureus; T = 0 hours (pre incubation), drug 50 μg/ml, Mueller Hinton (70 ul composition 26)",red
same,Colour of media,"Staphylococcus aureus; T = 0 hours (pre incubation), drug 50 μg/ml, Tryptic Soy (70 ul composition 2c)",red
same,Colour of media,"Staphylococcus aureus; T = 0 hours (pre incubation), drug 50 μg/ml, Tryptic Soy, wells H (20 ul composition 2c)",red
same,Colour of media,"Staphylococcus aureus; T = 0 hours (pre incubation), drug 100 μg/ml, Mueller Hinton (70 ul composition 26)",red
same,Colour of media,"Staphylococcus aureus; T = 0 hours (pre incubation), drug 100 μg/ml, Tryptic Soy (70 ul composition 2c)",red
same,Colour of media,"Staphylococcus aureus; T = 0 hours (pre incubation), drug 100 μg/ml, Tryptic Soy, wells H (20 ul composition 2c)",red
same,Colour of media,"Staphylococcus aureus; T = 0 hours (pre incubation), drug 500 μg/ml, Mueller Hinton (70 ul composition 26)",red
same,Colour of media,"Staphylococcus aureus; T = 0 hours (pre incubation), drug 500 μg/ml, Tryptic Soy (70 ul composition 2c)",red
same,Colour of media,"Staphylococcus aureus; T = 0 hours (pre incubation), drug 500 μg/ml, Tryptic Soy, wells H (20 ul composition 2c)",red
same,Colour of media,"Staphylococcus aureus; T = 15-24 h at 35° C., drug 0.01 μg/ml, Mueller Hinton (70 ul composition 26)",red
same,Colour of media,"Staphylococcus aureus; T = 15-24 h at 35° C., drug 0.01 μg/ml, Tryptic Soy (70 ul composition 2c)",yellow
same,Colour of media,"Staphylococcus aureus; T = 15-24 h at 35° C., drug 0.01 μg/ml, Tryptic Soy, wells H (20 ul composition 2c)",red
same,Colour of media,"Staphylococcus aureus; T = 15-24 h at 35° C., drug 0.05 μg/ml, Mueller Hinton (70 ul composition 26)",red
same,Colour of media,"Staphylococcus aureus; T = 15-24 h at 35° C., drug 0.05 μg/ml, Tryptic Soy (70 ul composition 2c)",red
same,Colour of media,"Staphylococcus aureus; T = 15-24 h at 35° C., drug 0.05 μg/ml, Tryptic Soy, wells H (20 ul composition 2c)",red
same,Colour of media,"Staphylococcus aureus; T = 15-24 h at 35° C., drug 0.1 μg/ml, Mueller Hinton (70 ul composition 26)",red
same,Colour of media,"Staphylococcus aureus; T = 15-24 h at 35° C., drug 0.1 μg/ml, Tryptic Soy (70 ul composition 2c)",red
same,Colour of media,"Staphylococcus aureus; T = 15-24 h at 35° C., drug 0.1 μg/ml, Tryptic Soy, wells H (20 ul composition 2c)",red
same,Colour of media,"Staphylococcus aureus; T = 15-24 h at 35° C., drug 0.5 μg/ml, Mueller Hinton (70 ul composition 26)",red
same,Colour of media,"Staphylococcus aureus; T = 15-24 h at 35° C., drug 0.5 μg/ml, Tryptic Soy (70 ul composition 2c)",red
same,Colour of media,"Staphylococcus aureus; T = 15-24 h at 35° C., drug 0.5 μg/ml, Tryptic Soy, wells H (20 ul composition 2c)",red
same,Colour of media,"Staphylococcus aureus; T = 15-24 h at 35° C., drug 1 μg/ml, Mueller Hinton (70 ul composition 26)",red
same,Colour of media,"Staphylococcus aureus; T = 15-24 h at 35° C., drug 1 μg/ml, Tryptic Soy (70 ul composition 2c)",red
same,Colour of media,"Staphylococcus aureus; T = 15-24 h at 35° C., drug 1 μg/ml, Tryptic Soy, wells H (20 ul composition 2c)",red
same,Colour of media,"Staphylococcus aureus; T = 15-24 h at 35° C., drug 5 μg/ml, Mueller Hinton (70 ul composition 26)",red
same,Colour of media,"Staphylococcus aureus; T = 15-24 h at 35° C., drug 5 μg/ml, Tryptic Soy (70 ul composition 2c)",red
same,Colour of media,"Staphylococcus aureus; T = 15-24 h at 35° C., drug 5 μg/ml, Tryptic Soy, wells H (20 ul composition 2c)",red
same,Colour of media,"Staphylococcus aureus; T = 15-24 h at 35° C., drug 10 μg/ml, Mueller Hinton (70 ul composition 26)",red
same,Colour of media,"Staphylococcus aureus; T = 15-24 h at 35° C., drug 10 μg/ml, Tryptic Soy (70 ul composition 2c)",red
same,Colour of media,"Staphylococcus aureus; T = 15-24 h at 35° C., drug 10 μg/ml, Tryptic Soy, wells H (20 ul composition 2c)",red
same,Colour of media,"Staphylococcus aureus; T = 15-24 h at 35° C., drug 50 μg/ml, Mueller Hinton (70 ul composition 26)",red
same,Colour of media,"Staphylococcus aureus; T = 15-24 h at 35° C., drug 50 μg/ml, Tryptic Soy (70 ul composition 2c)",red
same,Colour of media,"Staphylococcus aureus; T = 15-24 h at 35° C., drug 50 μg/ml, Tryptic Soy, wells H (20 ul composition 2c)",red
same,Colour of media,"Staphylococcus aureus; T = 15-24 h at 35° C., drug 100 μg/ml, Mueller Hinton (70 ul composition 26)",red
same,Colour of media,"Staphylococcus aureus; T = 15-24 h at 35° C., drug 100 μg/ml, Tryptic Soy (70 ul composition 2c)",red
same,Colour of media,"Staphylococcus aureus; T = 15-24 h at 35° C., drug 100 μg/ml, Tryptic Soy, wells H (20 ul composition 2c)",red
same,Colour of media,"Staphylococcus aureus; T = 15-24 h at 35° C., drug 500 μg/ml, Mueller Hinton (70 ul composition 26)",red
same,Colour of media,"Staphylococcus aureus; T = 15-24 h at 35° C., drug 500 μg/ml, Tryptic Soy (70 ul composition 2c)",red
same,Colour of media,"Staphylococcus aureus; T = 15-24 h at 35° C., drug 500 μg/ml, Tryptic Soy, wells H (20 ul composition 2c)",red
same,Colour of media in each well,"Staphylococcus aureus; bacteria samples 5c, Benzyl Penicillin or Cloxacillin 1 μg/ml",red
same,Colour of media in each well,"Staphylococcus aureus; bacteria samples 5c, Benzyl Penicillin or Cloxacillin 10 μg/ml",red
same,Colour of media in each well,"Staphylococcus aureus; bacteria samples 5c, Benzyl Penicillin or Cloxacillin 100 μg/ml",red
same,Colour of media in each well,"Staphylococcus aureus; bacteria samples 5c, Benzyl Penicillin or Cloxacillin 1,000 μg/ml",red
same,Colour of media in each well,"Staphylococcus aureus; bacteria samples 5c, Benzyl Penicillin or Cloxacillin 10,000 μg/ml",red
same,Colour of media in each well,"Staphylococcus aureus; bacteria samples 5e, Benzyl Penicillin or Cloxacillin 1 μg/ml",red
same,Colour of media in each well,"Staphylococcus aureus; bacteria samples 5e, Benzyl Penicillin or Cloxacillin 10 μg/ml",red
same,Colour of media in each well,"Staphylococcus aureus; bacteria samples 5e, Benzyl Penicillin or Cloxacillin 100 μg/ml",red
same,Colour of media in each well,"Staphylococcus aureus; bacteria samples 5e, Benzyl Penicillin or Cloxacillin 1,000 μg/ml",red
same,Colour of media in each well,"Staphylococcus aureus; bacteria samples 5e, Benzyl Penicillin or Cloxacillin 10,000 μg/ml",red
same,Colour of media in each well,Streptococcus uberis; [2],red
same,Colour of media in each well,Streptococcus uberis; [3],red
same,Colour of media in each well,Streptococcus uberis; [4],red
same,Colour of media in each well,Streptococcus uberis; [5],red
same,Colour of media in each well,Streptococcus uberis; [6],red
same,Colour of media in each well,[1]; [2],Red
same,Colour of media in each well,[1]; [3],Red
same,Colour of media in each well,[1]; [4],Red
same,Colour of media in each well,[1]; [5],Red
same,Colour of media in each well,[1]; [6],Red
